{
  "source": "patent US5922681A",
  "about": "“Endothelin antagonists” (Warner-Lambert Company, priority 1992, dated 1999)",
  "key": {"[1]": {"target": "endothelin receptor (Rat Heart)", "experiment": "[125I]-ET-1 receptor binding, Rat Heart", "method": "(§1) The compounds of Formula I are valuable antagonists of endothelin. […] Compounds of Formula I were tested for their ability to inhibit [^125 I]-ET-1([^125 I]-Endothelin-1) binding in a receptor assay according to the following procedures Doherty, A. M., et al, J. Cardiovascul. Pharmacol. 17(Suppl 7):S59-61 (1991) and Doherty, A. M., et al, Bio. Org."}, "[2]": {"target": "endothelin receptor (Human Placenta)", "experiment": "[125I]-ET-1 receptor binding, Human Placenta", "method": "as §1"}, "[3]": {"tested_on": "endothelin-stimulated arachidonic acid release in cultured vascular smooth muscle cells", "experiment": "AAR assay for antagonist activity", "format": "cell-based, rabbit", "details": "ET-1 0.3 nM", "method": "AAR Assay for Antagonist Activity\nAntagonist activity is measured by the ability of added compounds to reduce endothelin-stimulated arachidonic acid release in cultured vascular smooth muscle cells as arachidonic acid release (AAR). [^3 H] Arachidonic Acid Loading Media (LM) is DME/F12+0.5% FCS×0.25 mCi/mL [^3 H] arachidonic acid (Amersham). Confluent monolayers of cultured rabbit renal artery vascular smooth muscle cells were incubated in 0.5 mL of the LM over 18 hours, at 37° C., in 5% CO2. The LM was aspirated and the cells were washed once with the assay buffer (Hank's BSS+10 mM HEPES+fatty acid-free BSA (1 mg/mL), and incubated for 5 minutes with 1 mL of the prewarmed assay buffer. This solution was aspirated, followed by an additional 1 mL of prewarmed assay buffer, and further incubated for another 5 minutes. A final 5-minute incubation was carried out in a similar manner. […] This solution was then collected, […] of scintillation cocktail was added, and the amount of [^3 H] arachidonic acid was determined in a liquid scintillation counter."}, "[4]": {"tested_on": "ET-1-induced vasoconstriction", "details": "isolated porcine coronary arteries; cited from earlier work"}, "[5]": {"tested_on": "ETA receptor over the ETB subtype", "details": "cited from earlier work"}, "[6]": {"tested_on": "endothelin-induced arachidonic acid release in vascular smooth muscle cells (ETA)", "details": "cited from earlier work"}, "[7]": {"tested_on": "endothelin-stimulated constriction in the rabbit femoral renal (ETA), and pulmonary arteries (ETB)", "details": "cited from earlier work"}, "ETB": {"tested_on": "ETB", "details": "isolated, endothelium-intact porcine pulmonary arteries; cited from earlier work"}, "ET receptor": {"tested_on": "ET receptor", "details": "cited from earlier work"}, "[8]": {"tested_on": "ET-1-induced vasoconstriction", "details": "isolated rabbit aorta; cited from earlier work"}, "pressor response to ET-1": {"tested_on": "pressor response to ET-1", "details": "IV bolus 1 mg/kg; cited from earlier work"}, "ET-1-induced arrythmia": {"tested_on": "ET-1-induced arrythmia", "details": "rats; cited from earlier work"}, "[9]": {"tested_on": "vasoconstriction of the basilar artery", "details": "canine subarachnoid hemorrhage, intracisternal 0.1 mg; cited from earlier work"}},
  "note": "Non-standard residues stand in square brackets, D forms with d. Residues, ends and D or L forms follow the SMILES beside them. No end group written: not given here.",
  "data": [
    {"compound": "C[C@@](Cc1c[nH]c2ccccc12)(NC(=O)OC1C2CC3CC(C2)CC1C3)C(=O)N[C@H](CC(=O)O)Cc1ccccc1", "note": "(relative stereo) [Compound 4, [S-(R*,R*)]-β-[[3-(1H-indol-3-yl)-2-methyl-1-oxo-2-[[(tricyclo[3.3.1.1^3,7]dec-2-yloxy)carbonyl]-amino]propyl]amino]benzenebutanoic acid]", "values": [
      {"measurement": "IC50", "setting": "[1]", "result": 47.3, "unit": "µM"},
      {"measurement": "IC50", "setting": "[2]", "result": 58.3, "unit": "µM"},
      {"measurement": "AAR IC50 (μM) (Antag) % inhib at 10 μM", "setting": "[3]", "result": 62.4, "unit": "%"}
    ]},
    {"compound": "CC(C)C[C@@H]1NC(=O)[C@@H](C(C)C)NC(=O)[C@@H]2CCCN2C(=O)[C@@H](CC(=O)O)NC(=O)[C@@H](Cc2c[nH]c3ccccc23)NC1=O", "note": "[BQ-123] (cyclo(L[dW][dD]P[dV]))", "values": [
      {"measurement": "Antagonism of ET-1-induced vasoconstriction", "setting": "[4]", "result": "antagonize"}
    ]},
    {"compound": "Ac-(β-phenyl)D-Phe-L-Leu-L-Asp-L-lle-L-lle-L-Trp trifluoroacetate [PD 142893]", "values": [
      {"measurement": "Binding selectivity for the ETA receptor over the ETB subtype", "setting": "[5]", "result": "tenfold"},
      {"measurement": "Antagonism of endothelin-induced arachidonic acid release", "setting": "[6]", "result": "functional antagonist"},
      {"measurement": "Antagonism of endothelin-stimulated constriction", "setting": "[7]", "result": "antagonizes"}
    ]},
    {"compound": "ET[1,3,11,15-Ala]: linear ET analog, reported selective ETB agonist (ASASSLMDKEAVYFAHLDIIW; Endothelin-1; UniProt P05305 53-73, looked up, variant C1A C3A C11A C15A)", "values": [
      {"measurement": "Vasorelaxation", "setting": "ETB", "result": "caused vasorelaxation"}
    ]},
    {"compound": "ET[1-20]: ET-1 lacking the C-terminal amino acid (Trp-21) (CSCSSLMDKECVYFCHLDII; ends and bridges not checked; cysteine pairing not given here; UniProt P05305 53-72, looked up, fragment)", "values": [
      {"measurement": "Functional / vasoconstrictor activity, fold less", "setting": "ET receptor", "result": "approximately 1000 fold"}
    ]},
    {"compound": "ET[6-21, 1,3,11,15-Ala]", "values": [
      {"measurement": "Vasorelaxation", "setting": "ETB", "result": "caused vasorelaxation"}
    ]},
    {"compound": "ET[8-21,11,15-Ala]", "values": [
      {"measurement": "Vasorelaxation", "setting": "ETB", "result": "caused vasorelaxation"}
    ]},
    {"compound": "FR 139317", "values": [
      {"measurement": "pA2, inhibition of ET-1-induced vasoconstriction", "setting": "[8]", "result": 7.2},
      {"measurement": "Initial depressor response to ET-1", "setting": "pressor response to ET-1", "result": "no effect"},
      {"measurement": "Pressor response to ET-1", "setting": "pressor response to ET-1", "result": "completely inhibited"},
      {"measurement": "ET-1-induced arrythmia", "setting": "ET-1-induced arrythmia", "result": "suppressed"},
      {"measurement": "Vasoconstriction of the basilar artery after 7 days", "setting": "[9]", "result": "significantly inhibited"}
    ]},
    {"compound": "N-acetyl-ET[10-21]: truncated ET analog, reported selective ETB agonist (Ac-ECVYFCHLDIIW; cysteine pairing not given here; UniProt P05305 62-73, looked up, fragment)", "values": [
      {"measurement": "Vasorelaxation", "setting": "ETB", "result": "caused vasorelaxation"}
    ]}
  ]
}
